{
  "source": "patent US8722626B2",
  "about": "“Method for controlling fibrosis and other pathological deposits in tissues comprising administering a GHRP-6 composition” (Centro de Ingenieria Genetica y Biotecnologia, priority 2006, dated 2014)",
  "key": {"[1]": {"system": "male APP transgenic mice expressing the beta-amiloid precursor protein", "experiment": "Beta-amiloid protein deposition in brain of APP transgenic mice (Example 5)", "format": "in vivo, mouse", "design": "SODt (oxidative stress marker) / Catalase (oxidative stress marker) / HPT (oxidative stress marker) / MDA (oxidative stress marker): unit not given here", "details": "8 weeks; for Catalase (oxidative stress marker) / HPT (oxidative stress marker) / MDA (oxidative stress marker) / SODt (oxidative stress marker): brain tissues; for No. of deposits positive to Congo Red / No. of deposits positive to beta-amiloid / Size of amiloid plaques: brain", "protocol": "This study was conducted to evaluate the influence of the long-term administration (8 weeks) of the GHRP-6 on the biochemical and morphological markers in the brain of transgenic mice expressing the beta-amiloid precursor protein, these markers also indicating the progression of the central nervous system damage. For the present study, 20-25 g in body weight male APP transgenic mice were acquired, expressing the beta-amiloid precursor protein. Animals (N=30) were randomly distributed in:\nPlacebo group—Physiological saline solution 0.9%.\nDosage I group—GHRP-6 at 50 μg/kg of body weight in saline solution.\nDosage II group—GRHP-6 at 100 μg/kg of body weight in saline solution.\nTreatments were applied by the intraperitoneal route in 1 ml, five days a week during 8 weeks, with animals receiving 40 administrations of GHRP-6. We knew from previous exploratory pilot studies that this period of time was sufficient for improving cognitive and motor skills in animals under stress.\nAfter 8 weeks of treatment, mice were sacrificed by anesthesia overdose, and perfused in situ with saline solution. Encephala were extracted, one encephalon was frozen in dry-ice and the other was fixed in 4% para-formaldehyde neutral. Samples were cryo-sliced at 10 μm and slices were stained with hematoxylin/eosin, Congo Red, or incubated with an antibody specific for the beta-amiloid protein. Morphometric procedures were carried out by microscopic imaging capture by a camera connected to the microscope, and the images were analyzed with the DIGIPAT software.\nThe number of fibrillar deposits of the beta-amiloid protein positive to Congo Red staining.\nThe number of foci immunoreactive to the antibody that recognizes the beta-amiloid protein.\nSize of the beta-amiloid plaques in the brain, recognized at 200× and 400× magnifications (μm^2).\nBrain concentration of myo-inositol as indicator of aging and brain metabolism deterioration (μmol/g of tissue)."}, "[2]": {"system": "human keloid fragments xeno-transplanted in athymic mice", "experiment": "Human keloid fragments xeno-transplanted into athymic mice (Example 7)", "format": "in vivo, mouse", "excerpt": "To study the effect of peptides GHRP-6, GHRP-2, Hexarelin and/or Ghrelin in eradicating the pathological deposits of physiological material in the skin, human keloid fragments were xeno-transplanted into the dorsal region in athymic mice. After 72 hrs of evolution, to corroborate grafting and viability of xeno-transplants, the animals (N=6) were randomly distributed into the following experimental groups: • A—Saline control group (vehicle of the active principles). • B—Group receiving GHRP-6. • C—Group receiving GHRP-2. • D—Group receiving Ghrelin. • E—Group receiving Hexarelin. • Treatments were applied once every 24 hrs during 7 days. The substances were infiltrated at the edges in the implants, for local bioavailability of the active principles, at dosages from 5 micrograms to 1 milligram. After the treatment period, the animals were sacrificed and the implants extracted to evaluate the pharmacological response to every substance. Samples were weighed and fragmented for histological studies and biochemical determinations of collagen. The fragments for histological studies were fixed in 10% formalin neutral, and those fragments for biochemical analyses were stored at −70° C. • The parameters studied were: • a—Wet weight of the graft collected. • b—Hydroxiproline content in the tissue. • c—Number of microscopic fields with tissue positive to Picrosirius red staining and trichromic Masson's staining."}, "[3]": {"details": "Dosage I: 50 μg/kg i.p. five days a week"}, "[4]": {"details": "Dosage II: 100 μg/kg i.p. five days a week"}, "[5]": {"details": "infiltrated at the edges in the implants once every 24 hrs during 7 days, 5 micrograms to 1 milligram"}},
  "data": [
    {"substance": "GHRP-6", "values": [
      {"measurement": "Myo-inositol concentration in the brain.", "setting": "[1]; [3]", "value": "49.35 ± 10 μmol/g of tissue"},
      {"measurement": "Myo-inositol concentration in the brain.", "setting": "[1]; [4]", "value": "27.45 ± 8.61 μmol/g of tissue"},
      {"measurement": "Catalase (oxidative stress marker)", "setting": "[1]; Dosage I: 50 μg/kg i.p.", "value": "81.6 ± 15.25"},
      {"measurement": "HPT (oxidative stress marker)", "setting": "[1]; Dosage I: 50 μg/kg i.p.", "value": "54.3 ± 11.87"},
      {"measurement": "MDA (oxidative stress marker)", "setting": "[1]; Dosage I: 50 μg/kg i.p.", "value": "0.77 ± 1.56"},
      {"measurement": "SODt (oxidative stress marker)", "setting": "[1]; Dosage I: 50 μg/kg i.p.", "value": "611.17 ± 44.79"},
      {"measurement": "Catalase (oxidative stress marker)", "setting": "[1]; Dosage II: 100 μg/kg i.p.", "value": "60.18 ± 13.67"},
      {"measurement": "HPT (oxidative stress marker)", "setting": "[1]; Dosage II: 100 μg/kg i.p.", "value": "21.25 ± 5.44"},
      {"measurement": "MDA (oxidative stress marker)", "setting": "[1]; Dosage II: 100 μg/kg i.p.", "value": "0.4 ± 0.02"},
      {"measurement": "SODt (oxidative stress marker)", "setting": "[1]; Dosage II: 100 μg/kg i.p.", "value": "863.22 ± 50.3"},
      {"measurement": "No. of deposits positive to Congo Red", "setting": "[1]; [3]", "value": "21.78 ± 6.57"},
      {"measurement": "No. of deposits positive to beta-amiloid", "setting": "[1]; [3]", "value": "15.11 ± 3.27"},
      {"measurement": "Size of amiloid plaques", "setting": "[1]; [3]", "value": "15.51 ± 6.44", "unit": "μm^2"},
      {"measurement": "No. of deposits positive to Congo Red", "setting": "[1]; [4]", "value": "14.52 ± 4.18"},
      {"measurement": "No. of deposits positive to beta-amiloid", "setting": "[1]; [4]", "value": "13.58 ± 4.61"},
      {"measurement": "Size of amiloid plaques", "setting": "[1]; [4]", "value": "10.88 ± 4.1", "unit": "μm^2"},
      {"measurement": "No. of fields positive to collagen-specific staining", "setting": "[2]; Picrosirius red and trichromic Masson's staining, 4× and 10× averaged, infiltrated once every 24 hrs during 7 days", "value": 11.45},
      {"measurement": "No. of microscopic fields with mast cells (20X magnif.)", "setting": "[2]; aniline blue staining, infiltrated once every 24 hrs during 7 days", "value": "9.54 ± 2.15"},
      {"measurement": "Hydroxiproline content in the tissue", "setting": "[2]; [5]", "value": "88.27 ± 4.61", "unit": "µg/g"},
      {"measurement": "Wet weight of the graft collected", "setting": "[2]; [5]", "value": "6.71 ± 1.18", "unit": "a grams"}
    ]}
  ]
}
